Test results from publication PMC12195982, “Design, Synthesis, and In Vitro Evaluation of 4-(Arylchalcogenyl)methyl)-1H-1,2,3-triazol-1-yl-menadione: Exploring Their Potential Against Tuberculosis” (Pharmaceuticals, 2025).
In brackets after ≈: the same amount, converted by molar mass.

Test system: INH- and RIF-resistant Mtb (strain T113/09, KatG and rpoB mutation)
Format: cell-based, Mycobacterium tuberculosis

Row | Structure (SMILES) | MIC INH/RIFR-Mtb [µg/mL] | fold more potent than INH
1 | CC1=C(C(c2ccccc2)n2cc(C[Se]c3ccccc3)nn2)C(=O)c2ccccc2C1=O (stereo not shown) [Compound 9g, 2-methyl-3-(phenyl(4-((phenylselanyl)methyl)-1H-1,2,3-triazolyl)methyl)naphthalene-1,4-dione] | ≤3 | at least 7 fold
2 | CC1=C(Cn2cc(C[Se]c3ccc(Cl)cc3)nn2)C(=O)c2ccccc2C1=O [Compound 9b, 2-((4-(((4-chlorophenyl)selanyl)methyl)-1H-1,2,3-triazolyl)methyl)-3-methylnaphthalene-1,4-dione] | ≤3 | at least 7 fold
3 | CC1=C(Cn2cc(C[Se]c3cccc(C(F)(F)F)c3)nn2)C(=O)c2ccccc2C1=O [Compound 9c] | >99 | 
4 | CC1=C(Cn2cc(C[Se]c3ccccc3)nn2)C(=O)c2ccccc2C1=O [Compound 9a, 2-methyl-3-((4-((phenylselanyl)methyl)-1H-1,2,3-triazolyl)methyl)naphthalene-1,4-dione] | 3 (≈ 7.1 µM) | at least 7 fold
5 | CC1=C(C(c2ccc(C)cc2)n2cc(C[Se]c3ccccc3)nn2)C(=O)c2ccccc2C1=O (stereo not shown) [Compound 9h, 2-methyl-3-((4-((phenylselanyl)methyl)-1H-1,2,3-triazolyl)(p-methylphenyl)methyl) naphthalene-1,4-dione] | ≤3 | at least 7 fold
6 | NNC(=O)c1ccncc1 [INH, isoniazid, reference compound] | 8 (≈ 58.3 µM) | 
